Measurements as given in the supplement of paper PMC10307832.

What was measured:
Assay in all cases: relative viability (nuclei count vs DMSO), 5 days (fraction); higher = more cells survive
[1] = compound: CC1=CC(=CC=C1)NC2=NC(=CS2)C3=CC=NC=C3 + Cc1nc(NC(=O)N2CCC[C@H]2C(N)=O)sc1-c1ccnc(C(C)(C)C(F)(F)F)c1 [Alpelisib] (partner 2 µM)
How it was run: (§1)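 Values are medians from duplicate plates. Each reflects relative viability, defined as the nuclei count of treated wells over that of vehicle wells. Lung cancer cell lines in 1536-well plates were pin-tool dosed one day after seeding with one drug alone or with a fixed anchor-drug dose plus five library-drug doses (not always all listed) in √10 steps, then fixed, stained and imaged at 4× after 5 days.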

[2] = compound: CC1=CC(=CC=C1)NC2=NC(=CS2)C3=CC=NC=C3 + Cc1nc(Nc2ncc(C(=O)Nc3c(C)cccc3Cl)s2)cc(N2CCN(CCO)CC2)n1 [Dasatinib] (partner 0.075 µM)
How it was run: as §1

Masitinib + Foretinib = compound: Cc1ccc(NC(=O)c2ccc(CN3CCN(C)CC3)cc2)cc1Nc1nc(-c2cccnc2)cs1 [Masitinib] + COc1cc2c(Oc3ccc(NC(=O)C4(C(=O)Nc5ccc(F)cc5)CC4)cc3F)ccnc2cc1OCCCN1CCOCC1 [Foretinib] (partner 0.25 µM)
How it was run: as §1

Masitinib + Crizotinib = compound: Cc1ccc(NC(=O)c2ccc(CN3CCN(C)CC3)cc2)cc1Nc1nc(-c2cccnc2)cs1 [Masitinib] + C[C@@H](Oc1cc(-c2cnn(C3CCNCC3)c2)cnc1N)c1c(Cl)ccc(F)c1Cl [Crizotinib] (partner 1 µM)
How it was run: as §1

Row | Cell Line | relative viability ([1]; first compound 0.08 µM) | relative viability ([1]; first compound 0.253 µM) | relative viability ([1]; first compound 0.8 µM) | relative viability ([1]; first compound 2.53 µM) | relative viability ([1]; first compound 8 µM) | relative viability ([2]; first compound 0.08 µM) | relative viability ([2]; first compound 0.253 µM) | relative viability ([2]; first compound 0.8 µM) | relative viability ([2]; first compound 2.53 µM) | relative viability ([2]; first compound 8 µM) | relative viability (Masitinib + Foretinib; first compound 0.01 µM) | relative viability (Masitinib + Foretinib; first compound 0.03162 µM) | relative viability (Masitinib + Foretinib; first compound 0.1 µM) | relative viability (Masitinib + Foretinib; first compound 1 µM) | relative viability (Masitinib + Crizotinib; first compound 0.01 µM) | relative viability (Masitinib + Crizotinib; first compound 0.03162 µM) | relative viability (Masitinib + Crizotinib; first compound 0.1 µM) | relative viability (Masitinib + Crizotinib; first compound 0.3162 µM) | relative viability (Masitinib + Crizotinib; first compound 1 µM) | relative viability (Masitinib + Foretinib; first compound 0.3162 µM)
1 | 201T | 1 | 1.05 | 1.04 | 0.96 | 0.853 | 0.59 | 0.515 | 0.497 | 0.508 | 0.382 | 0.89 | 1.21 | 1.02 | 1.11 | 0.836 | 1.03 | 0.99 | 1.02 | 0.935 | –
2 | A549 | 0.778 | 0.693 | 0.913 | 0.758 | 0.673 | – | – | – | – | – | 0.881 | 0.826 | 1 | 1.23 | 0.666 | 0.805 | 0.823 | 0.686 | 0.722 | 0.898
3 | A-427 | 1.03 | 1.06 | 1.1 | – | 0.844 | 0.61 | 0.658 | 0.681 | 0.681 | 0.518 | – | 1.13 | – | 1 | – | 0.889 | – | 0.845 | 0.783 | 1.01
4 | ABC-1 | 0.928 | 0.891 | 0.873 | 0.907 | 0.967 | 0.659 | 0.473 | 0.552 | 0.445 | 0.404 | 0.93 | 1.07 | 1.21 | 1 | 0.965 | 1.17 | 1.15 | 1.12 | 1.18 | 1.05
5 | BEN | 1.11 | 0.973 | 1.07 | 0.856 | 0.91 | 0.304 | 0.273 | 0.364 | 0.222 | 0.327 | 0.702 | – | 0.745 | 0.461 | 0.888 | 0.834 | 1.09 | 1.18 | 0.765 | 0.705
6 | CAL-12T | 1.22 | 1.13 | 1.33 | 1.07 | 1.22 | 0.423 | 0.321 | 0.332 | 0.299 | 0.245 | 1.05 | 1.16 | 1.15 | 0.933 | 0.625 | 0.472 | 0.623 | 0.66 | 0.464 | 1.07
7 | COR-L23 | 0.607 | 0.609 | 0.508 | 0.611 | 0.71 | 0.479 | 0.511 | 0.389 | 0.338 | 0.402 | 0.935 | 1.05 | 1.1 | 0.92 | 0.645 | 0.607 | 0.768 | 0.59 | 0.629 | 1.02
8 | COR-L 105 | 0.956 | 0.794 | 0.869 | 0.773 | 0.715 | 0.284 | 0.289 | 0.349 | 0.279 | 0.306 | 1.01 | 0.906 | 1.06 | 0.726 | 0.657 | 0.803 | 0.876 | 0.686 | 0.717 | 0.901
9 | Calu-6 | 0.886 | 0.744 | 0.906 | 0.957 | 0.919 | – | – | – | – | – | 0.814 | 0.822 | 0.931 | 0.862 | 0.781 | 0.808 | 0.886 | 0.843 | 0.73 | 0.825
10 | ChaGo-K-1 | – | – | – | – | – | 0.547 | 0.675 | 0.605 | 0.49 | 0.54 | 0.961 | 0.863 | 0.924 | 0.907 | 1.33 | 1.12 | 1.51 | 1.05 | 1.12 | 0.967
11 | EBC-1 | 0.644 | 0.744 | 0.773 | 0.809 | 0.712 | – | – | – | – | – | 0.112 | 0.096 | 0.108 | 0.126 | 0.191 | 0.205 | 0.195 | 0.162 | 0.212 | 0.0908
12 | EKVX | 0.764 | 0.812 | 0.824 | 0.643 | 0.656 | 0.208 | 0.518 | 0.552 | 0.446 | 0.306 | – | 0.663 | 0.53 | 0.68 | – | 0.789 | 0.79 | 0.825 | 0.922 | 0.458
13 | EMC-BAC-2 | 0.66 | 0.747 | 0.702 | 0.779 | 0.719 | 0.279 | 0.312 | 0.293 | 0.306 | 0.332 | 0.873 | 0.955 | 1.02 | 1.02 | 0.655 | 0.648 | 0.845 | 0.705 | 0.82 | 0.956
14 | EPLC-272H | 0.894 | – | 0.927 | – | 0.869 | 0.396 | 0.338 | 0.273 | 0.288 | 0.333 | 0.63 | 0.64 | 0.669 | 0.645 | 0.881 | 0.81 | 0.803 | 0.842 | 0.871 | 0.875
15 | H3255 | 0.582 | 0.713 | 0.72 | 0.654 | 0.594 | 0.397 | 0.347 | 0.489 | 0.341 | 0.528 | 0.745 | 0.922 | 0.648 | 0.748 | – | 0.767 | 0.711 | 0.722 | 0.815 | 0.934
16 | HARA | 0.621 | 0.513 | 0.596 | 0.724 | 0.542 | 0.194 | 0.269 | 0.399 | 0.281 | 0.278 | – | 0.795 | 0.913 | 0.819 | 0.961 | 0.75 | 1.25 | 1.04 | 1.01 | 0.437
17 | HCC-15 | 0.792 | 0.699 | 0.845 | 0.841 | 0.879 | 0.467 | 0.469 | 0.589 | 0.499 | 0.53 | 0.989 | 0.949 | 1.02 | 0.983 | 0.745 | 0.826 | 0.798 | 1.04 | 0.976 | 1.05
18 | HCC-44 | 0.601 | 0.497 | 0.56 | 0.644 | 0.608 | – | – | – | – | – | – | – | – | – | 0.699 | 0.844 | 0.875 | 0.713 | 0.739 | –
